Laboratory results reported in article PMC6953623 (Bioorganic & medicinal chemistry letters, 2019).

Biological target: AChE (Homo sapiens, UniProt P22303)
Format: biochemical
Details: result in words

Chain of AChE (P22303 32-614): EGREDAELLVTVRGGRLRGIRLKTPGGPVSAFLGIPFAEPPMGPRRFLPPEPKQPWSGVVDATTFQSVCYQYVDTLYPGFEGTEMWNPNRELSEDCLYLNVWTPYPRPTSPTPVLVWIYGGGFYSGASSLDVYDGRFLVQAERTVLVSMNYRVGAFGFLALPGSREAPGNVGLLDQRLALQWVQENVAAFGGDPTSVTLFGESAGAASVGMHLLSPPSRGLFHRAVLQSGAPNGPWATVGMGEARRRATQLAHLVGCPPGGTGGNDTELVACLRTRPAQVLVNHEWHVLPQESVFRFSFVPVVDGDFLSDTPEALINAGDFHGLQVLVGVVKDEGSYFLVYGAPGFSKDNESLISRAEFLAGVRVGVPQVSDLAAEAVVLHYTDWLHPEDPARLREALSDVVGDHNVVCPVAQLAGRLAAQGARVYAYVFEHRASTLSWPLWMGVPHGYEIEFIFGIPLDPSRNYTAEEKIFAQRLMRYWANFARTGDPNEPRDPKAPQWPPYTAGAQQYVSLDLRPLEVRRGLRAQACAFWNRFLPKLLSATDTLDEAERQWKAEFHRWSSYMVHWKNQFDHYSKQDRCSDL

## Cc1cc(CSCCc2nc3ccccc3[nH]2)c(O)c(CSCCc2nc3ccccc3[nH]2)c1 [NSC620023]
  inhibition of AChE: no inhibition of AChE at all
